Measured values reported in ChEMBL document CHEMBL4052754, “Targeting progesterone metabolism in breast cancer with l-proline derived new 14-azasteroids” (Bioorg Med Chem, 2017).
Calls of active or inactive are those of the source. The calls are words filed in the database; no cut-off is given here.

Key:
HEK293 = assay: Cytotoxicity against HEK293 cells after 24 hrs by MTT assay; type: cell-based; details: Homo sapiens, HEK293, 24 h
MCF7 [1] = assay: Cytotoxicity against human MCF7 cells after 24 hrs by MTT assay; type: functional, cell-based; details: MCF7, 24 h
MDA-MB-231 [2] = assay: Cytotoxicity against human MDA-MB-231 cells after 24 hrs by MTT assay; type: functional, cell-based; details: MDA-MB-231, 24 h
MCF7 [3] = assay: Cell cycle arrest in human MCF7 cells assessed as increase in sub-G1 population at 0.5 to 10 uM after 24 hrs by propidium iodide staining based flow cytometric analysis; type: functional
MCF7 [4] = assay: Anti-invasive activity against human MCF7 cells assessed as inhibition of TGF-beta induced cell invasion at 0.5 to 1 uM after 24 hrs by crystal violet staining based transwell assay; type: functional
MCF7 [5] = assay: Induction of mitochondrial membrane potential loss in human MCF7 cells assessed as ratio of green to red fluorescence at 0.5 uM after 24 hrs by JC1 staining based flow cytometric analysis (reference value: 1.41); type: functional
MCF7 [6] = assay: Induction of mitochondrial membrane potential loss in human MCF7 cells assessed as ratio of green to red fluorescence at 1 uM after 24 hrs by JC1 staining based flow cytometric analysis (reference value: 1.41); type: functional
MCF7 [7] = assay: Decrease in SRD5A1 level in human MCF7 cells at 1 to 10 uM after 24 hrs by ELISA; type: functional, cell-based
MCF7 [8] = assay: Induction of mitochondrial membrane potential loss in human MCF7 cells assessed as ratio of green to red fluorescence at 5 uM after 24 hrs by JC1 staining based flow cytometric analysis (reference value: 1.41); type: functional
MCF7 [9] = assay: Cell cycle arrest in human MCF7 cells assessed as increase in G2/M population at 0.5 to 10 uM after 24 hrs by propidium iodide staining based flow cytometric analysis; type: functional
MDA-MB-231 [10] = assay: Cell cycle arrest in human MDA-MB-231 cells assessed as increase in G2/M-phase population after 24 hrs by flow cytometric analysis; type: functional, cell-based
MDA-MB-231 [11] = assay: Anti-migratory activity against human MDA-MB-231 cells assessed as reduction in cell migration towards wound area at 0.1 uM after 24 hrs by phase contrast microscopic analysis; type: functional, cell-based
MDA-MB-231 [12] = assay: Induction of mitochondrial membrane potential loss in human MDA-MB-231 cells assessed as ratio of green to red fluorescence at 5 uM after 24 hrs by JC1 staining based flow cytometric analysis (reference value: 4.55); type: functional
MDA-MB-231 [13] = assay: Induction of mitochondrial membrane potential loss in human MDA-MB-231 cells assessed as ratio of green to red fluorescence at 0.5 uM after 24 hrs by JC1 staining based flow cytometric analysis (reference value: 4.55); type: functional
MCF7 [14] = assay: Decrease in 5alpha-DHP level in human MCF7 cells after 24 hrs by ELISA; type: functional, cell-based
MDA-MB-231 [15] = assay: Cell cycle arrest in human MDA-MB-231 cells assessed as decrease in S phase population after 24 hrs by flow cytometric analysis; type: functional, cell-based
MDA-MB-231 [16] = assay: Induction of mitochondrial membrane potential loss in human MDA-MB-231 cells after 24 hrs by JC1 staining based flow cytometric analysis; type: functional, cell-based
MDA-MB-231 [17] = assay: Cell cycle arrest in human MDA-MB-231 cells assessed as increase in sub-G1 population after 24 hrs by flow cytometric analysis; type: functional, cell-based
MDA-MB-231 [18] = assay: Induction of mitochondrial membrane potential loss in human MDA-MB-231 cells assessed as ratio of green to red fluorescence at 1 uM after 24 hrs by JC1 staining based flow cytometric analysis (reference value: 4.55); type: functional
MCF7 [19] = assay: Induction of mitochondrial membrane potential loss in human MCF7 cells after 24 hrs by JC1 staining based flow cytometric analysis; type: functional, cell-based
MCF7 [20] = assay: Decrease in progesterone level in human MCF7 cells at 1 to 10 uM after 24 hrs by ELISA; type: functional, cell-based
MDA-MB-231 [21] = assay: Anti-migratory activity against human MDA-MB-231 cells assessed as reduction in cell migration towards wound area at 0.5 to 10 uM after 24 hrs by phase contrast microscopic analysis; type: functional, cell-based
MCF7 [22] = assay: Induction of apoptosis in human MCF7 cells after 24 hrs by Annexin-V-FITC/propidium iodide staining based flow cytometric analysis; type: functional, cell-based
MDA-MB-231 [23] = assay: Induction of apoptosis in human MDA-MB-231 cells after 24 hrs by Annexin-V-FITC/propidium iodide staining based flow cytometric analysis; type: functional, cell-based
MDA-MB-231 [24] = assay: Anti-migratory activity against human MDA-MB-231 cells assessed as reduction in cell migration towards wound area at 50 uM after 24 hrs by phase contrast microscopic analysis relative to control; type: functional; design: scale not given: the % may be the effect or the level left
MCF7 [25] = assay: Decrease in 5alpha-DHP level in human MCF7 cells at 1 to 10 uM after 24 hrs by ELISA; type: functional, cell-based

## C1=C2c3ccccc3CC[C@H]2N2CCC[C@H]2C1
HEK293
  IC50: > 50 µM
MCF7 [1]
  IC50: 34.4 µM
MDA-MB-231 [2]
  IC50: > 50 µM

## C[C@]12CC=C3c4ccccc4CC[C@H]3N1CCC2
HEK293
  IC50: > 50 µM
MCF7 [1]
  IC50: 4.3 µM
MDA-MB-231 [2]
  IC50: 33.9 µM

## COc1ccc2c(c1)C1=CC[C@@H]3C[C@@H](OCc4ccccc4)CN3[C@H]1CC2
HEK293
  IC50: > 50 µM
MCF7 [1]
  IC50: > 50 µM
MDA-MB-231 [2]
  IC50: 9.8 µM

## C1=C2c3ccccc3CC[C@@H]2N2CCC[C@H]2C1
HEK293
  IC50: > 50 µM
MCF7 [1]
  IC50: > 50 µM
MDA-MB-231 [2]
  IC50: 47.2 µM

## C[C@]12CC=C3c4ccccc4CC[C@@H]3N1CCC2
MCF7 [3]
  Activity: Active
MCF7 [4]
  inhibition: Active
MCF7 [5]
  Ratio: 2.51
MCF7 [6]
  Ratio: 4.45
MCF7 [7]
  Activity: Active
MCF7 [8]
  Ratio: 8.29
MCF7 [9]
  Activity: Active
MDA-MB-231 [10]
  Activity: Dose-dependent effect
HEK293
  IC50: > 50 µM
MDA-MB-231 [11]
  Activity: inactive
MDA-MB-231 [12]
  Ratio: 9.045
MDA-MB-231 [13]
  Ratio: 7.8
MCF7 [14]
  Activity: Dose-dependent effect
MDA-MB-231 [15]
  Activity: Dose-dependent effect
MDA-MB-231 [16]
  Activity: Dose-dependent effect
MDA-MB-231 [17]
  Activity: Dose-dependent effect
MDA-MB-231 [18]
  Ratio: 9.35
MCF7 [19]
  Activity: Dose-dependent effect
MCF7 [20]
  Activity: Active
MDA-MB-231 [21]
  Activity: Active
MCF7 [22]
  Activity: Dose-dependent effect
MDA-MB-231 [23]
  Activity: Dose-dependent effect
MCF7 [1]
  IC50: 1 µM
MDA-MB-231 [24]
  Activity: 100%
MDA-MB-231 [2]
  IC50: 1.4 µM

## C1=C2c3ccccc3CC[C@@H]2N2C[C@H](OCc3ccccc3)C[C@H]2C1
HEK293
  IC50: > 50 µM
MCF7 [1]
  IC50: 40.6 µM
MDA-MB-231 [2]
  IC50: 45.3 µM

## COc1ccc2c(c1)C1=CC[C@@H]3C[C@@H](OCc4ccccc4)CN3[C@@H]1CC2
HEK293
  IC50: > 50 µM
MCF7 [1]
  IC50: > 50 µM
MDA-MB-231 [2]
  IC50: 42.4 µM

## CC(C)(C)NC(=O)[C@H]1CC[C@H]2[C@@H]3CC[C@H]4NC(=O)C=C[C@]4(C)[C@H]3CC[C@]12C [FINASTERIDE]
MCF7 [7]
  Activity: inactive
HEK293
  IC50: > 50 µM
MCF7 [25]
  Activity: inactive
MCF7 [20]
  Activity: Active
MCF7 [1]
  IC50: 44.1 µM
MDA-MB-231 [2]
  IC50: > 50 µM

## C1=C2c3ccccc3CC[C@H]2N2C[C@H](OCc3ccccc3)C[C@H]2C1
HEK293
  IC50: > 50 µM
MCF7 [1]
  IC50: 5.4 µM
MDA-MB-231 [2]
  IC50: 35.6 µM
